The text below walks through data of BindingDB's records for doi:10.1016/j.bmcl.2009.01.089 (Gsk, 2009).

This assay has as its target T1, Gag-Pol polyprotein [1148-1435] (Human immunodeficiency virus 1, UniProt P04585).
T1 construct: 1148-1435
Kind of assay: HIV Integrase Strand Transfer Scintillation Proximity Assay (SPA). The procedure:
Purified recombinant integrase was first combined in a complex with biotinylated donor DNA- streptavidin-coated SPA beads. The complex was preincubated with the test compound, and strand transfer was initiated with a radiolabeled target DNA substrate. After incubation, the incorporated radioactivity was read in a Wallac MicroBeta scintillation plate reader using a counting protocol that corrected for optical cross talk between wells.
Background: Scintillation proximity formats need no separation of bound from free tracer.

By IC50 is commonly meant the concentration at which inhibition is half-maximal. A high value points to a need for much substance.

The molecule `NC(=O)c1nc(-c2nnc(Cc3ccc(F)cc3)o2)c(O)c2ncccc12` [7-{5-[(4-fluorophenyl)methyl]-1,3,4-oxadiazol-2-yl}-8-hydroxy-1,6-naphthyridine-5-carboxamide] had a concentration for half-maximal inhibition (IC50) of 100 nM. Where the note is “pH 7.2, 37 °C”, `Cc1ccc(S(=O)(=O)Nc2nc(-c3nnc(Cc4ccc(F)cc4)o3)c(O)c3ncccc23)cc1` [N-(7-{5-[(4-fluorophenyl)methyl]-1,3,4-oxadiazol-2-yl}-8-hydroxy-1,6-naphthyridin-5-yl)-4-methylbenzene-1-sulfonamide] came in with a half-maximal inhibitory concentration (IC50) of 42 nM.
